Reference: patent publication US7378234B2, “Method for isolating hepatitis C virus peptides” (Intercell AG, priority 2002, dated 2008)
“Also recorded” adds a separate entry of the source. Read-outs that look alike come from different tables or passages of the source.

How the values were obtained:
HLA class I [1] = conditions: source data: literature reference; cited from earlier work
HLA-B*0702 = HLA-B*0702 (Homo sapiens, UniProt P01889); assay: Competition-type peptide binding assay, soluble HLA-B*0702, FITC-labelled reference peptide; conditions: for HLA-B*0702 minimal epitope (in words): short peptides from Ipep 1587 with HLA-B*0702 binding motifs
Description: These were tested in a competition-type peptide binding assay using soluble HLA-B*0702 and the FITC-labelled reference peptide […] (SEQ ID NO:1033), which is a known HLA-B*0702 epitope derived from EBV (Stuber et al., 1995). […] Thus it is likely to present the minimal HLA-B*0702 epitope contained in Ipep 1587.

HLA-DRB1*0101 = HLA-DRB1*0101 (Homo sapiens, UniProt P01903+P01911, A100R/D57E/F55L/F60I/F76Y/I96L/L162R/M171V/P40L/Q125E/R42F/V115G/Y59C); assay: Epitope capture / peptide binding, SDS-stability assay, soluble DRB1*0101; conditions: soluble HLA class II, individual peptide confirmed (Table 2)
[2] = system: HLA-A*0201 transgenic mice; assay: Immunization of HLA-A*0201 transgenic mice (peptide + CpI), splenocyte IFN-gamma ELISpot; assay type: in vivo, mouse; conditions: for immunogenicity in HLA-A*0201 transgenic mice (in words): Example II, IFN-gamma ELISpot of splenocytes; for Immunogenicity, peptide-specific IFN-gamma-producing cells, A*0201: HLA-A*0201 transgenic mice, splenocytes
Outline: (§1)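 Groups of three female 8-week-old transgenic mice were given 100 μg peptide plus 30 μg CpI oligodinucleotide subcutaneously in the flank. Splenocytes (1×10^6–3×10^5/well) were restimulated overnight at 37 °C with the immunizing peptide, control peptides or medium, and IFN-gamma spots counted by ELISpot; + = <100, ++ = >100 peptide-specific cells per million splenocytes.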

[3] = system: HLA-DRB1*0401 transgenic mice; assay: Immunization of HLA-DRB1*0401 transgenic mice (peptide + CpI), splenocyte IFN-gamma ELISpot; assay type: in vivo, mouse; conditions: for immunogenicity in HLA-DRB1*0401 transgenic mice (in words): Example II, IFN-gamma ELISpot of splenocytes; for Immunogenicity, peptide-specific IFN-gamma-producing cells, DRB1*0401: HLA-DRB1*0401 transgenic mice, splenocytes
Outline: as §1

[4] = system: HLA-DRB1*0401 transgenic mice; assay: Vaccination of HLA-DRB1*0401 transgenic mice (peptide + IC31), IFN-gamma ELISpot with spleen cells and CD4+ fraction; assay type: in vivo, mouse; conditions: peptide + IC31, whole spleen cells and CD4+ fraction
Description: (§2) Mouse splenocyte ELIspot assay for single cell IFN-gamma release ELISpot plates (MAHA S4510, Millipore, Germany) were rinsed with PBS (200 μl/well), coated with anti-mouse IFN-gamma mAb (clone R46A2; 100 μl/well of 5 μg/ml in 0.1 M NaHCO3, pH 9.2-9.5) and incubated overnight at 4° C. Plates were washed four times with PBS/0.1% Tween 20 and incubated with PBS/1% BSA (200 μl/well) at room temperature for 2 h to block nonspecific binding. Spleen cells from vaccinated mice were prepared and plated at 1×10^6-3×10^5 cells/well and incubated overnight at 37° C./5% CO2 either in the presence of the immunizing antigen (peptide), control peptides or with medium alone. Subsequently, plates were washed four times and incubated with biotinylated anti-mouse IFN-gamma mAb (clone AN18.17.24, 100 μl/well of 2 μg/ml in PBS/1% BSA) for 2 h at 37° C. After washing, streptavidin-peroxidase (Roche Diagnostics, Vienna, Austria) was added ( 1/5000 in PBS, 100 μl/well) and plates were incubated at room temperature for 2 additional hours. Subsequently, substrate was added to the washed plates (100 μl/well of a mixture of 10 ml 100 mM Tris pH 7.5 supplemented with 200 μl of 40 mg/ml DAB stock containing 50 μl of 80 mg/ml NiCl2 stock and 5 μl of 30% H2O2). The reaction was stopped after 20-30 minutes by washing the plates with tap water. Dried plates were evaluated with an ELISpot reader (BIOREADER 2000, BioSys, Karben, Germany).
(§3) Groups of 5 mice (HLA-A*0201-, HLA-DRB1*0401- and HLA-B*0702 transgenic mice, male, 8-14 weeks of age) were injected subcutaneous into the hind footpads with 100 μg of peptide +IC31 per mouse (50 μg per footpad). (PCT/EP01/12041, WO 02/32451 A1 and PCT/EP01/06433, WO 01/93905 A1; IC31 is a combination of the immunizer disclosed in WO 01/93905 and WO 02/32451).
(§4) 6 days after vaccination single cell suspension of pooled spleens were prepared and additionally pure fractions of CD8+ in the case of A2 and B7 tg mice (CD8+ fraction for B7 mice containing 97% of CD8 and 1.5% of CD4 cells and for A2 tg mice 83% of CD8 and 8% of CD4 cells) and CD4+ for DR4tg mice (CD4+ fraction for DR4tg mice containing 98% of CD4 cells and 0.2% of CD8 cells) were separated from the spleen cell suspension using MACS separating kit (Miltenyi, Germany).

HLA-DRB1*0401 = HLA-DRB1*0401 (Homo sapiens, UniProt P01903+P01911, A100K/A169T/F76Y/I96L/K127E/L162R/M171V/N62H/P40V/Q125Y/R42H/S133A/S149N/S66Y/V115G/V209L/W38E); assay: Epitope capture / peptide binding, SDS-stability assay, soluble DRB1*0401; conditions: soluble HLA class II, individual peptide confirmed (Table 2)
[5] = system: PBMC from HCV RNA-negativ therapy responders or subjects spontaneously recovered; assay: IFN-gamma ELIspot with human PBMC from HCV therapy responders or spontaneously recovered subjects; conditions: directly ex vivo, >8 significant
[6] = system: HLA-A*0201 transgenic mice; assay: Vaccination of HLA-A*0201 transgenic mice (peptide + IC31), IFN-gamma ELISpot with spleen cells and CD8+ fraction; assay type: in vivo, mouse; conditions: peptide + IC31, whole spleen cells and CD8+ fraction
Description: as §2, §3, §4

HLA-DRB1*0404 = HLA-DRB1*0404 (Homo sapiens, UniProt P01903+P01911, A100R/A169T/F76Y/I96L/K127E/L162R/M171V/N62H/P40V/Q125Y/R42H/S133A/S149N/S66Y/V209L/W38E); assay: Epitope capture / peptide binding, SDS-stability assay, soluble DRB1*0404; conditions: soluble HLA class II, individual peptide confirmed (Table 2)
[7] = system: HLA-B*0702 transgenic mice; assay: Vaccination of HLA-B*0702 transgenic mice (peptide + IC31), IFN-gamma ELISpot with spleen cells and CD8+ fraction; assay type: in vivo, mouse; conditions: for Immunogenicity, peptide-specific IFN-gamma-producing cells, B*0702: HLA-B*0702 transgenic mice, splenocytes; for specific INF-γ producing T cells / HLA-B*0702 epitope in HLA-B*0702 transgenic mice (in words): peptide + IC31, whole spleen cells and CD8+ fraction
Outline: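 Transgenic mice (groups of 5, male, 8–14 weeks) vaccinated s.c. in hind footpads with 100 μg peptide + IC31; 6 days later pooled splenocytes or MACS-purified CD8+ (A2, B7) or CD4+ (DR4) fractions restimulated overnight with peptide. IFN-gamma spots counted by ELISpot, 1×10^6–3×10^5 cells/well.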

HLA class II = HLA class II coverage of hotspots and epitopes, compiled from the Examples and Tables of this specification (epitope capture, HLA-transgenic animals, in vitro stimulation of human mononuclear cells); conditions: source data: Examples and Tables within this specification
PBMC (in vitro primed) = assay: IFN-gamma ELIspot after 2 rounds of in vitro priming of human PBMC; assay type: cell-based; conditions: donor H10
Description: Human PBMCs are repeatedly stimulated with antigen (peptide or peptide mixture) in the presence of IL-2 and IL-7. This leads to the selective oligoclonal expansion of antigen-specific T cells. Responses against individual epitopes can be assessed for instance by IFN-γ ELIspot assays. Freshly thawed PBMCs were cultured in 6 well plates (2-4×10^6/mL viable cells) in RPMI-1640 (GibcoBRL), 1% non-essential amino acids (GibcoBRL, cat# 11140-035), 1% Penicillin (10,000 U/ml)-Streptomycin (10,000 μg/ml) (GibcoBRL, cat#15140-122), 1% L-Glutamine (GibcoBRL), 0.1% beta-mercapto-ethanol (GibcoBRL), 1% Na-pyruvate (GibcoBRL), plus 10% Human AB serum (PAA, Linz, Austria). Peptides (10 μM each) were added to each well. rhIL-7 (Strathmann Biotech) was added at 10 ng/mL final concentration. 20-30 U/mL rhIL-2 (Strathmann Biotech) were added on day 4. On day 10, all cells were removed from plates, washed once in media (as above), and counted. For the next cycle of in vitro priming, viable cells were co-cultivated with autologous gamma irradiated (1.2 gray/min, for 20 minutes) PBMC as feeders (plated at 100,000 per well) and peptides, rh-IL-2 as described above. ELIspot was done as described above, except that 200,000 responder cells (pre-stimulated for 2 rounds of in vitro priming) were used together with 60,000 autologous irradiated […] cells.

HLA class I [8] = assay: HLA class I coverage of hotspots and epitopes, compiled from the Examples and Tables of this specification (epitope capture, HLA-transgenic animals, in vitro stimulation of human mononuclear cells); conditions: source data: Examples and Tables within this specification
Source text: Thus, as even individual T-cell epitopes are not obvious within the sequence of a polypeptide, the same is even more the case for hotspots. Several radically different experimental approaches are combined according to the present invention for T-cell epitope identification, including epitope capture, HLA-transgenic animals and in vitro stimulation of human mononuclear cells. All three approaches are systematically applied on overlapping peptides spanning the antigen of interest, enabling comprehensive identification of epitopes (refer to CMV Epitope Capture patent). Upon such a comprehensive analysis, not limited to a particular HLA allele, but rather unravelling all possibly targeted epitopes within a population, epitope hotspots may become apparent. Within an antigen, only few if any sequences show characteristics of hotspots. Thus the identification of a hotspot is always a surprising event.

Row | Substance | Binding to DRB1 *0101 (HLA-DRB1*0101) | immunogenicity in HLA-A*0201 transgenic mice (in words) [2] | Immunogenicity, peptide-specific IFN-gamma-producing cells, A*0201 [2] | immunogenicity in HLA-DRB1*0401 transgenic mice (in words) [3] | Immunogenicity, peptide-specific IFN-gamma-producing cells, DRB1*0401 [3] | specific INF-γ producing T cells / HLA-DRB1*0401 epitope in HLA-DRB1*0401 transgenic mice (in words) [4] | specific INF-γ producing T cells / HLA-A*0201 epitope in HLA-A*0201 transgenic mice (in words) [6] | Immunogenicity, peptide-specific IFN-gamma-producing cells, B*0702 [7] | specific INF-γ producing T cells / HLA-B*0702 epitope in HLA-B*0702 transgenic mice (in words) [7] | HLA-class II coverage (HLA class II) | other results
1 | 1754 (DYPYRLWHY) [compound 1754] | – | – | – | – | – | – | – | – | – | – | HLA-class I coverage (HLA class I [1]): Cw7
2 | SPGALVVGVI [Peptide 1838] | – | – | – | – | – | – | – | – | – | – | competition of FITC-labelled reference peptide binding to soluble HLA-B*0702 (HLA-B*0702; 80-fold molar excess, 48 h at 37° C., reference peptide LPCVLWPVL): ~30%; HLA-B*0702 minimal epitope (in words) (HLA-B*0702): minimal HLA-B*0702 epitopes; HLA-B*0702 minimal epitope (in words) (HLA-B*0702; listed as Ipep 1838): HLA-B*0702 minimal epitope
3 | VVCCSMSYSWTGALITPC [Peptide 1605] | nb (no binding) | immunogenicity | + (immunogenic (+, less than 100 peptide-specific cells among a million splenocytes)) | immunogenicity | + (immunogenic (+, less than 100 peptide-specific cells among a million splenocytes)) | confirmed to contain human HLA-DRB1*0401 epitopes | confirmed to contain human HLA-A*0201 epitopes | + (immunogenic (+, less than 100 peptide-specific cells among a million splenocytes)) | HLA-B*0702 epitopes with T-cell activating capacity | – | specific INF-γ producing T cells / HLA-DRB1*0401 epitope in HLA-DRB1*0401 transgenic mice (in words) ([4]; listed as Ipep1605): weaker responses; Binding to DRB1 *0401 (HLA-DRB1*0401): nb (no binding); peptide-specific IFN-gamma secreting T-cells, donor H04 ([5]; donor H04): 25 T-cells/10^6 PBMC; specific INF-γ producing T cells / HLA-A*0201 epitope in HLA-A*0201 transgenic mice (in words) ([6]; listed as Ipep1605): weaker responses; Binding to DRB1 *0404 (HLA-DRB1*0404): * (weak binding); specific INF-γ producing T cells / HLA-B*0702 epitope in HLA-B*0702 transgenic mice (in words) ([7]; listed as Ipep1605): weaker responses
4 | VDYPYRLWHYPCTVNFTIFKVRMYVGGVEHRL [Peptide 1650] | – | immunogenicity | ++ (strongly immunogenic (++, more than 100 peptide-specific cells among a million splenocytes)) | immunogenicity | ++ (strongly immunogenic (++, more than 100 peptide-specific cells among a million splenocytes)) | confirmed to contain human HLA-DRB1*0401 epitopes | confirmed to contain human HLA-A*0201 epitopes | + (immunogenic (+, less than 100 peptide-specific cells among a million splenocytes)) | HLA-B*0702 epitopes with T-cell activating capacity | DR1,4,7,11 | –
5 | DYPYRLWHYPCTVNYTIFKI [Peptide 1800] | – | – | – | – | – | – | – | – | – | DR7 | peptide-specific IFN-gamma secreting T-cells, donor H38 ([5]; donor H38): 35 T-cells/10^6 PBMC; peptide-specific IFN-gamma secreting T-cells, donor H10, after 2 rounds of in vitro stimulation (PBMC (in vitro primed)): 95 T-cells/10^6 PBMC; HLA-class I coverage (HLA class I [8]): Cw7,A24,A11
6 | VVCCSMSYTWTGALITPC [Peptide 1604] | * (weak binding) | immunogenicity | ++ (strongly immunogenic (++, more than 100 peptide-specific cells among a million splenocytes)) | immunogenic; also recorded: immunogenicity | ++ (strongly immunogenic (++, more than 100 peptide-specific cells among a million splenocytes)) | – | – | ++ (strongly immunogenic (++, more than 100 peptide-specific cells among a million splenocytes)) | HLA-B*0702 epitopes with T-cell activating capacity | DR1,4,7,11 | specific INF-γ producing T cells / HLA-DRB1*0401 epitope in HLA-DRB1*0401 transgenic mice (in words) ([4]; listed as Ipep1604): high numbers of specific INF-γ producing T cells; also recorded: class II epitope; specific INF-γ producing T cells / HLA-A*0201 epitope in HLA-A*0201 transgenic mice (in words) ([6]; listed as Ipep1604): high numbers of specific INF-γ producing T cells; also recorded: class I epitopes; specific INF-γ producing T cells / HLA-B*0702 epitope in HLA-B*0702 transgenic mice (in words) ([7]; listed as Ipep1604): high numbers of specific INF-γ producing T cells; also recorded: class I epitopes
